Laboratory results taken from patent US20170065667A1, “METHODS FOR SYNCHRONIZATION OF ESTROUS CYCLES AND OVULATION FOR FIXED TIME ARTIFICIAL INSEMINATION IN CATTLE” (Parnell Technologies Pty Ltd., priority 2014, published 2017).
Where “and” joins values, the source holds several entries; their conditions need not be identical. Equal entries are not always repeated. Where two headings read alike, the source gives them in different places.

How the values were obtained:
lactating Holstein cows = test: Experiment 1: CL regression / circulating P4 after one vs. two 2 mL i.m. cloprostenol sodium injections in Double-Ovsynch; type: in vivo, cattle; conditions: for CL regression, % of cows: quartiles 2, 3 and 4 combined; for circulating P4 concentrations at 56 hours after the first injection: day of final gonadorelin acetate injection, serum, in ng/mL
Experimental: An experiment was conducted to determine the effectiveness of the exogenous administration of hormones for synchronizing the estrous cycles of lactating dairy cattle and resulting pregnancy rates subsequent to FTAI. A total of 373 lactating Holstein cows (172 primiparous, 201 multiparous) were synchronized with a Double-Ovsynch program comprising a first or presynchronization Ovsynch phase followed by a second Ovsynch phase. All animals were synchronized using a GnRH composition (about 100 mcg of gonadorelin acetate per mL, GONAbreed®, Parnell Technologies Pty Ltd, Alexandria, Australia) and a PGF2α analog composition (about 250 mcg of cloprostenol sodium per mL, estroPLAN®, Parnell Technologies Pty Ltd, Alexandria, Australia). The first Ovsynch phase began at about 51 to about 57 days in milk where the cows received a first 1 mL intramuscular injection of a gonadorelin acetate composition. At about 58 to about 64 days in milk, the cows received a first 2 mL intramuscular injection of a cloprostenol sodium composition. At about 61 to about 67 days in milk, the cows received a second 1 mL intramuscular injection of a gonadorelin acetate composition concluding the first Ovsynch phase. The animals were then synchronized with a second Ovsynch phase comprising an Ovsynch-56 protocol beginning at about 68 to about 74 days in milk where the cows received a third 1 mL intramuscular injection of gonadorelin acetate composition. At about 75 to about 81 days in milk, the animals received a second 2 mL intramuscular injection of a cloprostenol sodium composition. At about 77 to about 83 days in milk (about 56 hours after the second injection of a cloprostenol sodium composition), the animals received a fourth 1 mL intramuscular injection of a gonadorelin acetate composition. And at about 78 to about 84 days in milk (about 16 hours after the fourth injection of the gonadorelin acetate composition), the animals receive AI, concluding the second Ovsynch phase. […] The experimental protocol is shown in the diagram of FIG. 2. Blood samples of the cows were taken at the time of the second injection of the cloprostenol sodium composition (at about 72 hours before FTAI) and at the time of the fourth injection of the gonadorelin acetate composition (at about 16 hours before FTAI). Blood samples were collected from the coccygeal vessels into vacuum tubes. Following collection, the blood samples were placed on ice and transported to a laboratory. After clotting (about 16 hours), samples were centrifuged at 3,000 rpm for 20 minutes and serum was isolated into vials, frozen and stored at −20 Celsius until assayed for P4 concentrations. Progesterone was determined directly from serum using a solid phase radioimmunoassay kit (Coat-A-Count, Siemens Healthcare Diagnostics, Los Angeles, Calif.) with no extraction. […] Statistical analyses were performed with SAS (SAS Institute, 2006). Variables with a binomial distribution, such as P/AI and percentage of animals with CL regression, were analyzed by logistic regression using the LOGISTIC procedure. One-tailed comparisons were utilized throughout the study for comparison of the effect of an additional cloprostenol sodium injection on CL regression and animals pregnant to the FTAI. Continuous variables were analyzed using ANOVA with logistic regression utilized to compare the relationship between circulating P4 and the binomial traits. Animals with ≦2.0 ng/mL P4 on day of PGF were removed from the analysis (n=29; 13 primiparous, 16 multiparous) due to lack of synchronization to the double Ovsynch protocol. Therefore, all analyses were done with a total of 344 lactating dairy cows (n=159 primiparous; n=185 multiparous). Statistical differences were considered significant for P≦0.05 and as a tendency for P≦0.15.

lactating dairy cows [1] = conditions: cited from earlier work; for percentage of cows with complete CL regression (<0.4 ng/mL 56 hours after PGF2α): 7 day Ovsynch
lactating dairy cows [2] = test: Combined analysis of Experiments 1 and 2: effect of second cloprostenol sodium injection on P/AI; type: in vivo, cattle; conditions: Experiments 1 and 2 combined
From the text: Experiment 1 and Experiment 2 were done with a similar experimental design and therefore results were combined in order to more thoroughly test the effect of a second cloprostenol sodium injection in the Ovsynch protocol on P/AI. There was no effect of the second PGF on P/AI in primiparous cows (P=0.304). However in multiparous cows, the second cloprostenol sodium injection increased (P=0.046) P/AI by about 12%. This effect of a second cloprostenol sodium injection on P/AI was also observed when all cows were included in the analysis (P=0.042). The final combined analysis of both experiments provided the most statistical power to test our main hypothesis (Table 6). Overall, there was increased (P=0.042) P/AI with a 9.6% relative increase in fertility. As in both experiments, the effect was only statistically detectable in multiparous (P=0.046) and not in primiparous (P=0.304) cows. In our study an effect of parity on fertility was only detected in cows treated with Ovsynch (P=0.04) and not in cows treated with Ovsynch with the second PGF treatment (P=0.17). Future studies should directly test whether parity effects with Ovsynch-type protocols are related primarily to differences in CL regression between parities or reflect other fertility differences related to parity.

[3] = one injection, overall (all cows), P4 <0.5 ng/mL at 56 h
[4] = two injections, Quartile 1, [P4] 2.0-5.4 at first injection
[5] = two injections, overall (all cows), P4 <0.5 ng/mL at 56 h

## O=C(O)CCC/C=C\CC1C(O)CC(O)C1/C=C/C(O)COc1cccc(Cl)c1 (stereo not drawn) [cloprostenol sodium]
Lactating Holstein cows; one injection
  percentage of cows with P4 below 0.2 ng/mL at final GnRH: 42.0%
  percentage of cows with higher P4 (>0.5 ng/mL) at final GnRH: 17.0%
  percentage of cows with lower P4 (0.1 to 0.19) at final GnRH: 34.7%
  CL regression, % of cows: 88.1%
Lactating Holstein cows; one injection, Quartile 1, [P4] 2.0-4.8 at first injection
  CL regression, % (n/n): 66.7% and 66.7 (28/42) %
Lactating Holstein cows; one injection, Quartile 2, [P4] 4.9-6.7
  CL regression, % (n/n): 84.4 (38/45) %
Lactating Holstein cows; one injection, Quartile 3, [P4] 6.8-8.7
  CL regression, % (n/n): 95.5 (42/44) %
Lactating Holstein cows; one injection, Quartile 4, [P4] 8.8-12
  CL regression, % (n/n): 84.4 (38/45) %
Lactating Holstein cows; one injection, multiparous, P4 <0.5 ng/mL at 56 h
  % of cows with complete CL regression: 84.4% (81/96)
Lactating Holstein cows; [3]
  % of cows with complete CL regression: 83.0% (146/176)
Lactating Holstein cows; one injection, primiparous, P4 <0.5 ng/mL at 56 h after first injection
  % of cows with complete CL regression: 81.2% (65/80)
Lactating Holstein cows; single injection
  circulating P4 concentrations at 56 hours after the first injection: 0.4 ± 0.04
Lactating Holstein cows; two injections
  percentage of cows with P4 below 0.2 ng/mL at final GnRH: 60.7%
  percentage of cows with higher P4 (>0.5 ng/mL) at final GnRH: 2.4%
  percentage of cows with lower P4 (0.1 to 0.19) at final GnRH: 49.4%
  circulating P4 concentrations at 56 hours after the first injection: 0.2 ± 0.05
  CL regression, % of cows: 97.6%
Lactating Holstein cows; two injections (second 24 h after first), primiparous, P4 <0.5 ng/mL at 56 h
  % of cows with complete CL regression: 97.5% (77/79)
Lactating Holstein cows; [4]
  CL regression, % (n/n): 95.1% and 95.1 (39/41) %
Lactating Holstein cows; two injections, Quartile 2, [P4] 5.5-7.0
  CL regression, % (n/n): 95.6 (43/45) %
Lactating Holstein cows; two injections, Quartile 3, [P4] 7.1-8.6
  CL regression, % (n/n): 100 (43/43) %
Lactating Holstein cows; two injections, Quartile 4, [P4] 8.7-12
  CL regression, % (n/n): 97.4 (38/39) %
Lactating Holstein cows; two injections, multiparous, P4 <0.5 ng/mL at 56 h
  % of cows with complete CL regression: 96.7% (86/89)
Lactating Holstein cows; [5]
  % of cows with complete CL regression: 97.0% (163/168)
Lactating dairy cows [1]; dinoprost 25 mg, cloprostenol 0.5 mg
  percentage of cows with complete CL regression: 79%
Lactating dairy cows [1]; dose from 500 to 750 μg, 7 day protocol
  effect on CL regression of increasing the dose: increased CL regression in multiparous but not primiparous cows
Lactating dairy cows [2]; multiparous cows
  increase in P/AI by second cloprostenol sodium injection: about 12%

## prostaglandin F2α [PGF]
Lactating Holstein cows; [3]
  % of cows with complete CL regression: 83%
Lactating Holstein cows; single PGF treatment, all cows
  % of cows that did not completely regress the CL: 18%
Lactating Holstein cows; single PGF treatment, greater circulating P4 at time of PGF
  % of cows with inadequate CL regression: 11.9%
Lactating Holstein cows; single PGF treatment, lower P4 (2.0 to 4.8 ng/mL) at time of PGF
  % of cows with inadequate CL regression: 33.3%
Lactating Holstein cows; [4]
  CL regression, % (n/n): 95.1%
Lactating Holstein cows; [5]
  % of cows with complete CL regression: 97%
Lactating Holstein cows; two injections
  CL regression, % of cows: 97.6%
Lactating dairy cows [1]; cows that ovulated to the first GnRH
  % of cows with CL regression: 79.4%
Lactating dairy cows [1]; cows with a d7 and a d14 CL
  % of cows not having complete CL regression: 8.2%
Lactating dairy cows [1]; cows with a single d7 CL
  % of cows not having complete CL regression: 35.6%
Lactating dairy cows [1]; cows with a single d14 CL
  % of cows not having complete CL regression: 3.0%
Lactating dairy cows [1]; cows without ovulation to the first GnRH
  % of cows with CL regression: 93%
Lactating dairy cows [1]; one PGF2α treatment (day 7)
  percentage of cows with complete CL regression (<0.4 ng/mL 56 hours after PGF2α): 84.6%
Lactating dairy cows [1]; resynchronized at 32 days after TAI with Ovsynch (Resynch-32)
  % of cows with complete CL regression (<0.4 ng/mL at 56 hours after PGF2α): 83.7%
Lactating dairy cows [1]; resynchronized with Double-Ovsynch
  % of cows with complete CL regression (<0.4 ng/mL at 56 hours after PGF2α): 89.1%
Lactating dairy cows [1]; single PGF2α treatment, Ovsynch-type protocols, literature
  % of cows with lack of complete / inadequate CL regression: 10 to 25% and 10-25%
Lactating dairy cows [1]; two PGF2α treatments (day 7 and day 8)
  percentage of cows with complete CL regression (<0.4 ng/mL 56 hours after PGF2α): 95.6%
Lactating dairy cows [2]; primiparous cows
  effect of the second PGF on P/AI: no effect
